Patent US4442044A, “Process for preparing monoesters and diesters of N-alkyl substituted amino methyl phosphonic acid” (priority 1983, dated 1984)

Tests used:
Type in all cases: in vivo
[1] = tested on: Barnyardgrass; test: post-emergent herbicidal activity, greenhouse; settings: 4 WAT
Procedure, shortened: (§1)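 Seeds or propagules sown in compacted top soil, grown 2–3 weeks in greenhouse, then sprayed with compound solution/suspension containing ~0.4% emulsifier at tabulated rates. Injury scored visually versus untreated controls at ~2 and 4 weeks after treatment, expressed as a herbicidal activity index.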

[2] = tested on: Canada Thistle; test: post-emergent herbicidal activity, greenhouse; settings: Table I, 4 WAT
Procedure, shortened: as §1

[3] = tested on: Cocklebur; test: post-emergent herbicidal activity, greenhouse; settings: 4 WAT
Procedure, shortened: as §1

[4] = tested on: Crabgrass; test: post-emergent herbicidal activity, greenhouse; settings: Table II, 4 WAT
Procedure, shortened: as §1

[5] = tested on: Downy Brome; test: post-emergent herbicidal activity, greenhouse; settings: 4 WAT
Procedure, shortened: as §1

[6] = tested on: Hemp Sesbania; test: post-emergent herbicidal activity, greenhouse; settings: Table II, 4 WAT
Procedure, shortened: as §1

[7] = tested on: Johnsongrass; test: post-emergent herbicidal activity, greenhouse; settings: Table I, 4 WAT
Procedure, shortened: as §1

[8] = tested on: Lambsquarters; test: post-emergent herbicidal activity, greenhouse; settings: 4 WAT
Procedure, shortened: as §1

[9] = tested on: Morningglory; test: post-emergent herbicidal activity, greenhouse; settings: 4 WAT
Procedure, shortened: as §1

[10] = tested on: Panicum Spp; test: post-emergent herbicidal activity, greenhouse; settings: Table II, 4 WAT
Procedure, shortened: as §1

[11] = tested on: Quackgrass; test: post-emergent herbicidal activity, greenhouse; settings: Table I, 4 WAT
Procedure, shortened: as §1

[12] = tested on: Rice; test: post-emergent herbicidal activity, greenhouse; settings: Table II, 4 WAT
Procedure, shortened: as §1

[13] = tested on: Smartweed; test: post-emergent herbicidal activity, greenhouse; settings: 4 WAT
Procedure, shortened: as §1

[14] = tested on: Sorghum; test: post-emergent herbicidal activity, greenhouse; settings: Table II, 4 WAT
Procedure, shortened: as §1

[15] = tested on: Soybean; test: post-emergent herbicidal activity, greenhouse; settings: Table II, 4 WAT
Procedure, shortened: as §1

[16] = tested on: Sugar Beet; test: post-emergent herbicidal activity, greenhouse; settings: Table II, 4 WAT
Procedure, shortened: as §1

[17] = tested on: Velvetleaf; test: post-emergent herbicidal activity, greenhouse; settings: 4 WAT
Procedure, shortened: as §1

[18] = tested on: Wheat; test: post-emergent herbicidal activity, greenhouse; settings: Table II, 4 WAT
Procedure, shortened: as §1

[19] = tested on: Wild Buckwheat; test: post-emergent herbicidal activity, greenhouse; settings: Table II, 4 WAT
Procedure, shortened: as §1

[20] = tested on: Yellow Nutsedge; test: post-emergent herbicidal activity, greenhouse; settings: Table I, 4 WAT
Procedure, shortened: as §1

[21] = tested on: Barnyardgrass; test: pre-emergent herbicidal activity, soil incorporation; settings: Table III, 2 WAT, 11.2 kg/h
Procedure, shortened: (§2)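 Compound incorporated into cover soil at a known active-ingredient amount over surface-placed seeds and propagules. Plants emerging after roughly two weeks are compared with untreated pans.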

[22] = tested on: Canada Thistle; test: as above; settings: Table III, 2 WAT, 11.2 kg/h
Procedure, shortened: as §2

[23] = tested on: Cocklebur; test: as above; settings: Table III, 2 WAT, 11.2 kg/h
Procedure, shortened: as §2

[24] = tested on: Downy Brome; test: as above; settings: Table III, 2 WAT, 11.2 kg/h
Procedure, shortened: as §2

[25] = tested on: Johnsongrass; test: as above; settings: Table III, 2 WAT, 11.2 kg/h
Procedure, shortened: as §2

[26] = tested on: Lambsquarters; test: as above; settings: Table III, 2 WAT, 11.2 kg/h
Procedure, shortened: as §2

[27] = tested on: Morningglory; test: as above; settings: Table III, 2 WAT, 11.2 kg/h
Procedure, shortened: as §2

[28] = tested on: Quackgrass; test: as above; settings: Table III, 2 WAT, 11.2 kg/h
Procedure, shortened: as §2

[29] = tested on: Smartweed; test: as above; settings: Table III, 2 WAT, 11.2 kg/h
Procedure, shortened: as §2

[30] = tested on: Velvetleaf; test: as above; settings: Table III, 2 WAT, 11.2 kg/h
Procedure, shortened: as §2

[31] = tested on: Yellow Nutsedge; test: as above; settings: Table III, 2 WAT, 11.2 kg/h
Procedure, shortened: as §2

CCCCCOC(=O)CNCP(=O)(O)OC(C)C#N (stereo not drawn) [Example 6, glycine, N-[[(1-cyanoethoxy)hydroxy-phosphinyl]methyl]pentyl ester, hemihydrate]
post-emergent herbicidal activity index ([1]; Table I, 5.6 kg/h): 3 (75-99% control)
post-emergent herbicidal activity index ([1]; Table I, 11.2 kg/h): 3 (75-99% control)
post-emergent herbicidal activity index ([1]; Table II, 0.28 kg/h): 2 (50-74% control)
post-emergent herbicidal activity index ([1]; Table II, 1.12 kg/h): 3 (75-99% control)
post-emergent herbicidal activity index ([1]; Table II, 5.6 kg/h): 3 (75-99% control)
post-emergent herbicidal activity index ([2]; 5.6 kg/h): 4 (100% control)
post-emergent herbicidal activity index ([2]; 11.2 kg/h): 4 (100% control)
post-emergent herbicidal activity index ([3]; Table I, 5.6 kg/h): 3 (75-99% control)
post-emergent herbicidal activity index ([3]; Table I, 11.2 kg/h): 3 (75-99% control)
post-emergent herbicidal activity index ([3]; Table II, 0.28 kg/h): 2 (50-74% control)
post-emergent herbicidal activity index ([3]; Table II, 1.12 kg/h): 2 (50-74% control)
post-emergent herbicidal activity index ([3]; Table II, 5.6 kg/h): 3 (75-99% control)
post-emergent herbicidal activity index ([4]; 0.28 kg/h): 3 (75-99% control)
post-emergent herbicidal activity index ([4]; 1.12 kg/h): 3 (75-99% control)
post-emergent herbicidal activity index ([4]; 5.6 kg/h): 4 (100% control)
post-emergent herbicidal activity index ([5]; Table I, 5.6 kg/h): 1 (25-49% control)
post-emergent herbicidal activity index ([5]; Table I, 11.2 kg/h): 3 (75-99% control)
post-emergent herbicidal activity index ([5]; Table II, 0.28 kg/h): 3 (75-99% control)
post-emergent herbicidal activity index ([5]; Table II, 1.12 kg/h): 3 (75-99% control)
post-emergent herbicidal activity index ([5]; Table II, 5.6 kg/h): 4 (100% control)
post-emergent herbicidal activity index ([6]; 0.28 kg/h): 1 (25-49% control)
post-emergent herbicidal activity index ([6]; 1.12 kg/h): 2 (50-74% control)
post-emergent herbicidal activity index ([6]; 5.6 kg/h): 4 (100% control)
post-emergent herbicidal activity index ([7]; 5.6 kg/h): 1 (25-49% control)
post-emergent herbicidal activity index ([7]; 11.2 kg/h): 2 (50-74% control)
post-emergent herbicidal activity index ([8]; Table I, 5.6 kg/h): 2 (50-74% control)
post-emergent herbicidal activity index ([8]; Table I, 11.2 kg/h): 4 (100% control)
post-emergent herbicidal activity index ([8]; Table II, 0.28 kg/h): 1 (25-49% control)
post-emergent herbicidal activity index ([8]; Table II, 1.12 kg/h): 3 (75-99% control)
post-emergent herbicidal activity index ([8]; Table II, 5.6 kg/h): 4 (100% control)
post-emergent herbicidal activity index ([9]; Table I, 5.6 kg/h): 3 (75-99% control)
post-emergent herbicidal activity index ([9]; Table I, 11.2 kg/h): 2 (50-74% control)
post-emergent herbicidal activity index ([9]; Table II, 0.28 kg/h): 2 (50-74% control)
post-emergent herbicidal activity index ([9]; Table II, 1.12 kg/h): 2 (50-74% control)
post-emergent herbicidal activity index ([9]; Table II, 5.6 kg/h): 3 (75-99% control)
post-emergent herbicidal activity index ([10]; 0.28 kg/h): 4 (100% control)
post-emergent herbicidal activity index ([10]; 1.12 kg/h): 4 (100% control)
post-emergent herbicidal activity index ([10]; 5.6 kg/h): 4 (100% control)
post-emergent herbicidal activity index ([11]; 5.6 kg/h): 2 (50-74% control)
post-emergent herbicidal activity index ([11]; 11.2 kg/h): 3 (75-99% control)
post-emergent herbicidal activity index ([12]; 0.28 kg/h): 1 (25-49% control)
post-emergent herbicidal activity index ([12]; 1.12 kg/h): 2 (50-74% control)
post-emergent herbicidal activity index ([12]; 5.6 kg/h): 4 (100% control)
post-emergent herbicidal activity index ([13]; Table I, 5.6 kg/h): 4 (100% control)
post-emergent herbicidal activity index ([13]; Table I, 11.2 kg/h): 4 (100% control)
post-emergent herbicidal activity index ([13]; Table II, 0.28 kg/h): 1 (25-49% control)
post-emergent herbicidal activity index ([13]; Table II, 1.12 kg/h): 3 (75-99% control)
post-emergent herbicidal activity index ([13]; Table II, 5.6 kg/h): 3 (75-99% control)
post-emergent herbicidal activity index ([14]; 0.28 kg/h): 1 (25-49% control)
post-emergent herbicidal activity index ([14]; 1.12 kg/h): 3 (75-99% control)
post-emergent herbicidal activity index ([14]; 5.6 kg/h): 4 (100% control)
post-emergent herbicidal activity index ([15]; 0.28 kg/h): 1 (25-49% control)
post-emergent herbicidal activity index ([15]; 1.12 kg/h): 2 (50-74% control)
post-emergent herbicidal activity index ([15]; 5.6 kg/h): 4 (100% control)
post-emergent herbicidal activity index ([16]; 0.28 kg/h): 2 (50-74% control)
post-emergent herbicidal activity index ([16]; 1.12 kg/h): 4 (100% control)
post-emergent herbicidal activity index ([16]; 5.6 kg/h): 4 (100% control)
post-emergent herbicidal activity index ([17]; Table I, 5.6 kg/h): 3 (75-99% control)
post-emergent herbicidal activity index ([17]; Table I, 11.2 kg/h): 3 (75-99% control)
post-emergent herbicidal activity index ([17]; Table II, 0.28 kg/h): 1 (25-49% control)
post-emergent herbicidal activity index ([17]; Table II, 1.12 kg/h): 2 (50-74% control)
post-emergent herbicidal activity index ([17]; Table II, 5.6 kg/h): 3 (75-99% control)
post-emergent herbicidal activity index ([18]; 0.28 kg/h): 2 (50-74% control)
post-emergent herbicidal activity index ([18]; 1.12 kg/h): 2 (50-74% control)
post-emergent herbicidal activity index ([18]; 5.6 kg/h): 4 (100% control)
post-emergent herbicidal activity index ([19]; 0.28 kg/h): 2 (50-74% control)
post-emergent herbicidal activity index ([19]; 1.12 kg/h): 2 (50-74% control)
post-emergent herbicidal activity index ([19]; 5.6 kg/h): 4 (100% control)
post-emergent herbicidal activity index ([20]; 5.6 kg/h): 2 (50-74% control)
post-emergent herbicidal activity index ([20]; 11.2 kg/h): 4 (100% control)
pre-emergent herbicidal activity index [21]: 0 (1-24% control)
pre-emergent herbicidal activity index [22]: 0 (1-24% control)
pre-emergent herbicidal activity index [23]: 0 (1-24% control)
pre-emergent herbicidal activity index [24]: 0 (1-24% control)
pre-emergent herbicidal activity index [25]: 0 (1-24% control)
pre-emergent herbicidal activity index [26]: 0 (1-24% control)
pre-emergent herbicidal activity index [27]: 0 (1-24% control)
pre-emergent herbicidal activity index [28]: 0 (1-24% control)
pre-emergent herbicidal activity index [29]: 0 (1-24% control)
pre-emergent herbicidal activity index [30]: 0 (1-24% control)
pre-emergent herbicidal activity index [31]: 0 (1-24% control)
